For data set [1], the target named is T1, Solute carrier organic anion transporter family member 1B3 (Homo sapiens, UniProt Q9NPD5).
T1 sequence (Q9NPD5 whole entry): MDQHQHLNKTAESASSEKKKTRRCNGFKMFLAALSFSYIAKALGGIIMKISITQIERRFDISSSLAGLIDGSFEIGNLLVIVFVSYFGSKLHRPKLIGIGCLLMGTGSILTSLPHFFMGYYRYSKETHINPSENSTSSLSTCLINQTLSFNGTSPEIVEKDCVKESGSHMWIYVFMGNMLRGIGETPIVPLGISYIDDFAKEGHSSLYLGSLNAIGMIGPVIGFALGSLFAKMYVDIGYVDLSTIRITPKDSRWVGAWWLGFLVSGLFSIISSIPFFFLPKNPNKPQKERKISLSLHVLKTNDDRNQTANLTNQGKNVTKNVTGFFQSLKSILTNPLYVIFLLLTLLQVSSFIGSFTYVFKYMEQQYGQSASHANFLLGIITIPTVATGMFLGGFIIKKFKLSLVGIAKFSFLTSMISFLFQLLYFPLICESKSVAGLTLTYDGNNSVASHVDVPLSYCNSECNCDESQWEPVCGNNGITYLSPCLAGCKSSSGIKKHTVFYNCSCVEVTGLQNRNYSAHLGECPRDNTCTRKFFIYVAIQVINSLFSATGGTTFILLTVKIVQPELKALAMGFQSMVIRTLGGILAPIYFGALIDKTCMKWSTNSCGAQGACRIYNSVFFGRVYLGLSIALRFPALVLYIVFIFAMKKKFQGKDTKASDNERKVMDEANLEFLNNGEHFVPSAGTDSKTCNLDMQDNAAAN
The note with it: chinese hamster, cho, 10 µM.

For data set [2], the target named is T2, Solute carrier organic anion transporter family member 1B1 (Homo sapiens, UniProt Q9Y6L6).
T2 sequence (Q9Y6L6 whole entry): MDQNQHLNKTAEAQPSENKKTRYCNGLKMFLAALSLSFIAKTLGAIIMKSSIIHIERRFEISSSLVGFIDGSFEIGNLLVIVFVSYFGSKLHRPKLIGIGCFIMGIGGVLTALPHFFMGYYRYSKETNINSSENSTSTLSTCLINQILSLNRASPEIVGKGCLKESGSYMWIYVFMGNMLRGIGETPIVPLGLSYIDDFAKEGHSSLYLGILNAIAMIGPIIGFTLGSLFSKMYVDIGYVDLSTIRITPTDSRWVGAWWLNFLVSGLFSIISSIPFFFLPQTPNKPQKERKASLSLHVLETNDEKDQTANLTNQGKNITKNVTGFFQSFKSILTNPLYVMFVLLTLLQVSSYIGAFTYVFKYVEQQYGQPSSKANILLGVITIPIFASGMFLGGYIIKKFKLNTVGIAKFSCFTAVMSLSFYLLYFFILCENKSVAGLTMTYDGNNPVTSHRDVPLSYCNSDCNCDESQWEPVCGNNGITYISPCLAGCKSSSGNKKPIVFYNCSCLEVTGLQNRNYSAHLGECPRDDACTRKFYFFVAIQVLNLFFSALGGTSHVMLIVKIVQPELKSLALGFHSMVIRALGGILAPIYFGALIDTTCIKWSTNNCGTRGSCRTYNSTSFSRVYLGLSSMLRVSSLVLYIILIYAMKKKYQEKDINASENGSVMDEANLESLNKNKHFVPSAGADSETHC
The note with it: chinese hamster, cho, 10 µM.

The results in this text go back to ChEMBL document CHEMBL3039007, “Structure-based identification of OATP1B1/3 inhibitors” (Mol Pharmacol, 2013).

The structures appear in SMILES notation.

On to `Cc1cc(O)cc(O)c1C(=O)O` [ORSELLINIC ACID], for which the values for the residual activity in data set [1] and in data set [2] were 86.96% and 66.07%, respectively.

As for `Cc1ccc(C(C)C)c(O)c1C(=O)O` [ORTHOTHYMOTINIC ACID], the residual activity in data set [1] came to 82.08%; in data set [2], 75.5%.

In the case of `CC(C)=CCc1c2c(c3occ(-c4ccc(O)cc4)c(=O)c3c1O)C=CC(C)(C)O2` [OSAJIN], the residual activity in data set [1] amounted to 88.68%; in data set [2], 112.9%.

`COc1ccc2ccc(=O)oc2c1CC=C(C)C` [OSTHOLE]: the residual activity in data set [1] was found to be 121.3%; in data set [2], 227.1%.

On to `C[C@@H]1O[C@@H](O[C@H]2C[C@@H](O)[C@]3(CO)[C@H]4[C@H](O)C[C@]5(C)[C@@H](C6=CC(=O)OC6)CC[C@]5(O)[C@@H]4CC[C@]3(O)C2)[C@H](O)[C@H](O)[C@H]1O` [OUABAIN], for which the residual activity in data set [1] is recorded as 98.13%; in data set [2], 108.1%.

Turning to `NC(=O)N1c2ccccc2CC(=O)c2ccccc21` [OXCARBAZEPINE], the residual activity in data set [1] stood at 85.1%; in data set [2], 71.5%.

Regarding `CC[S+]([O-])CCSP(=O)(OC)OC` (centres undefined) [OXDEMETONMETHYL], the residual activity is reported as 94.08% in data set [1] and 116.8% in data set [2].

Consider `COC(=O)Nc1nc2ccc([S+]([O-])c3ccccc3)cc2[nH]1` (centres undefined) [OXFENDAZOLE], for which the values for the residual activity in data set [1] and in data set [2] were 114.2% and 95.15%, respectively.

`CCCOc1ccc2nc(NC(=O)OC)[nH]c2c1` [OXIBENDAZOLE]: the residual activity in data set [1] amounted to 119.5%; in data set [2], 102.5%.

With `Clc1ccc(CO/N=C(\Cn2ccnc2)c2ccc(Cl)cc2Cl)c(Cl)c1.O=[N+]([O-])O` [OXICONAZOLE NITRATE], the residual activity in data set [1] is 122.3%; in data set [2] it was 116%.

With `Cl.NCCc1cc(O)c(O)cc1O` [OXIDOPAMINE HYDROCHLORIDE], the figures for the residual activity in data set [1] and in data set [2] were 100.5% and 80.99%, respectively.

For `CCn1cc(C(=O)O)c(=O)c2cc3c(cc21)OCO3` [OXOLINIC ACID], the residual activity is 87.39% in data set [1] and 55.65% in data set [2].

As for `O=C1CCCN1CC#CCN1CCCC1` [OXOTREMORINE], the residual activity is given as 82.72% in data set [1] and 95.24% in data set [2].

As for `COc1ccc(C(=O)c2ccccc2)c(O)c1` [OXYBENZONE], the residual activity in data set [1] was found to be 128.4%; in data set [2], 225.4%.

Regarding `Cc1cc(C(C)(C)C)c(O)c(C)c1CC1=NCCN1.Cl` [OXYMETAZOLINE HYDROCHLORIDE], the residual activity was found to be 104.7% in data set [1] and 95.6% in data set [2].

Take `CCCCC1C(=O)N(c2ccccc2)N(c2ccc(O)cc2)C1=O` (centres undefined) [OXYPHENBUTAZONE ANHYDROUS]: the residual activity in data set [1] is on record as 83.15%; in data set [2], 42.04%.

In the case of `CN1CCCN=C1COC(=O)C(O)(c1ccccc1)C1CCCCC1.Cl` (centres undefined) [OXYPHENCYCLIMINE HYDROCHLORIDE], the residual activity in data set [1] was found to be 103.9%; in data set [2], 92.1%.

With `CN(C)[C@@H]1C(O)=C(C(N)=O)C(=O)[C@@]2(O)C(O)=C3C(=O)c4c(O)cccc4[C@@](C)(O)[C@H]3[C@H](O)[C@@H]12` [OXYTETRACYCLINE], the figures for the residual activity in data set [1] and in data set [2] were 95.2% and 61.86%, respectively.

Regarding `COc1cc2c(cc1-c1cc3cc4ccoc4cc3oc1=O)OCO2` [PACHYRRIZINE], the residual activity was 121.4% in data set [1] and 139.6% in data set [2].

Regarding `C[C@@]12C[C@@]3(O)O[C@@H](O1)[C@]1(COC(=O)c4ccccc4)[C@H]3C[C@@]12O[C@@H]1O[C@H](CO)[C@@H](O)[C@H](O)[C@H]1O` [PAEONIFLORIN], the residual activity in data set [1] was 101.8%; in data set [2], 109.5%.

On to `COc1ccc(C(C)=O)c(O)c1` [PAEONOL], for which the values for the residual activity in data set [1] and in data set [2] were 108.3% and 121.7%, respectively.

Take `COc1cc2c(cc1OC)-c1cc3ccc(OC)c(OC)c3c[n+]1CC2.[Cl-]` [PALMATINE CHLORIDE]: the residual activity was found to be 97.62% in data set [1] and 110.1% in data set [2].

On to `COc1cc2c(cc1OC)-c1cc3ccc(OC)c(OC)c3c[n+]1CC2` [PALMITINE], for which the residual activity in data set [1] amounted to 102.6%; in data set [2], 78.6%.

As to `COc1ccnc(C[S+]([O-])c2nc3ccc(OC(F)F)cc3[nH]2)c1OC` (centres undefined) [PANTOPRAZOLE], the residual activity in data set [1] came out at 79.12%; in data set [2], 81.37%.

Take `COc1ccc(Cc2nccc3cc(OC)c(OC)cc23)cc1OC.Cl` [PAPAVERINE HYDROCHLORIDE]: the residual activity is reported as 113.7% in data set [1] and 266.9% in data set [2].

`Oc1ccc(Cl)cc1` [PARACHLOROPHENOL]: the residual activity in data set [1] is 100.4%; in data set [2] it was 89.66%.

Consider `N=C1C=CC(=C(c2ccc(N)cc2)c2ccc(N)cc2)C=C1.N=C1C=CC(=C(c2ccc(N)cc2)c2ccc(N)cc2)C=C1.O.O.O=C(O)c1cc2ccccc2c(Cc2c(O)c(C(=O)O)cc3ccccc23)c1O` [PARAROSANILINE PAMOATE], for which the results for the residual activity in data set [1] and in data set [2] were 144.5% and 66.86%, respectively.

As for `Cn1c(=O)[nH]c2ncn(C)c2c1=O` [PARAXANTHINE], the residual activity in data set [1] stood at 88.58%; in data set [2] it was 94.78%.

Take `C#CCN(C)Cc1ccccc1.Cl` [PARGYLINE HYDROCHLORIDE]: the residual activity in data set [1] is reported as 133.9%; in data set [2], 99.32%.

In the case of `Cl.Cl.Fc1ccc([C@@H]2CCNC[C@H]2COc2ccc3c(c2)OCO3)cc1.Fc1ccc([C@@H]2CCNC[C@H]2COc2ccc3c(c2)OCO3)cc1.O` [PAROXETINE HYDROCHLORIDE], the residual activity in data set [1] is reported as 76.07%; in data set [2] it was 96.74%.

Take `O=C1C=C2C(=CCOC2O)O1` (centres undefined) [PATULIN]: the results for the residual activity in data set [1] and in data set [2] were 79.09% and 81.5%, respectively.

As to `COc1ccc(-c2cc(=O)c3c(O)c(OC)c(O[C@@H]4O[C@H](CO[C@@H]5O[C@@H](C)[C@H](O)[C@@H](O)[C@H]5O)[C@@H](O)[C@H](O)[C@H]4O)cc3o2)cc1` [PECTOLINARIN], the residual activity in data set [1] came out at 155.8%; in data set [2] it was 39.1%.

On to `CCn1cc(C(=O)O)c(=O)c2cc(F)c(N3CCN(C)CC3)cc21.CS(=O)(=O)O` [PEFLOXACIN MESYLATE], for which the residual activity in data set [1] turned out to be 95.74%; in data set [2], 123.1%.

Turning to `CC(=O)CC1CCCCN1.Cl` (centres undefined) [PELLETIERINE HYDROCHLORIDE], the residual activity in data set [1] is given as 95.02%; in data set [2], 75.96%.

For the molecule `CC(C)(S)[C@@H](N)C(=O)O` [PENICILLAMINE], the residual activity in data set [1] is given as 124%; in data set [2], 100.4%.

With `C=C(C)C1(O)OC(=O)C=C1OC` (centres undefined) [PENICILLIC ACID], the values for the residual activity in data set [1] and in data set [2] were 96.2% and 110.4%, respectively.

As for `CC1(C)S[C@@H]2[C@H](NC(=O)COc3ccccc3)C(=O)N2[C@H]1C(=O)[O-].[K+]` [PENICILLIN V POTASSIUM], the residual activity in data set [1] amounted to 108.8%; in data set [2], 91.66%.

As to `Oc1c(Cl)c(Cl)c(Cl)c(Cl)c1Cl` [PENTACHLOROPHENOL], the residual activity was 40.68% in data set [1] and 19.96% in data set [2].

In the case of `CCCC(C)C1(CC)C(=O)NC(=O)NC1=O` (centres undefined) [PENTOBARBITAL], the residual activity in data set [1] came to 94.07%; in data set [2] it was 94.35%.

Consider `CC(C)=CCOc1c2occc2cc2ccc(=O)oc12` [PENTOSALEN], for which the residual activity amounted to 131.4% in data set [1] and 222.8% in data set [2].

Turning to `CC(=O)CCCCn1c(=O)c2c(ncn2C)n(C)c1=O` [PENTOXIFYLLINE], the figures for the residual activity in data set [1] and in data set [2] were 79.59% and 77.22%, respectively.

Take `COc1ccc(C(C)=O)c(OC)c1` [PEONOL METHYL ETHER]: the results for the residual activity in data set [1] and in data set [2] were 99.54% and 105.9%, respectively.

As usually defined, the residual activity is the signal under treatment as a percentage of the control signal.
